Results from ChEMBL document CHEMBL3997820, “Synthesis and evaluation of anticonvulsant properties of new N-Mannich bases derived from pyrrolidine-2,5-dione and its 3-methyl-, 3-isopropyl, and 3-benzhydryl analogs” (Bioorg Med Chem Lett, 2017).
Active and inactive are the calls of the source. No cut-off for these calls is given here.

Legend:
[1] = tested on: Mus musculus; assay: Anticonvulsant activity in albino CD1 mouse assessed as protection against maximal electroshock-induced seizures at 300 mg/kg, ip measured after 4 hrs; assay type: functional, organism-based
[2] = tested on: Mus musculus; assay: Neurotoxicity in albino CD1 mouse assessed as motor impairment at 300 mg/kg, ip measured after 4 hrs by rotarod test; assay type: toxicity, organism-based; conditions: in vivo
[3] = tested on: Mus musculus; assay: Neurotoxicity in albino CD1 mouse assessed as motor impairment at 300 mg/kg, ip measured after 0.5 hrs by rotarod test; assay type: toxicity, organism-based; conditions: in vivo
[4] = tested on: Mus musculus; assay: Anticonvulsant activity in albino CD1 mouse assessed as protection against subcutaneous pentylenetetrazole-induced seizures at 300 mg/kg, ip measured after 4 hrs; assay type: functional, organism-based
[5] = tested on: Mus musculus; assay: Anticonvulsant activity in albino CD1 mouse assessed as protection against subcutaneous pentylenetetrazole-induced seizures at 300 mg/kg, ip measured after 0.5 hrs; assay type: functional, organism-based
[6] = tested on: Mus musculus; assay: Anticonvulsant activity in albino CD1 mouse assessed as protection against maximal electroshock-induced seizures at 300 mg/kg, ip measured after 0.5 hrs; assay type: functional, organism-based

Row | SMILES | Activity [1] | Activity [2] | Activity [3] | Activity [4] | Activity [5] | Activity [6]
1 | CC1CC(=O)N(CN2CCN(c3ncccn3)CC2)C1=O (stereo unspecified) | inactive | Non-Toxic | Non-Toxic | inactive | inactive | inactive
2 | CC1CC(=O)N(CN2CCN(C)CC2)C1=O (stereo unspecified) | inactive | Non-Toxic | Non-Toxic | inactive | inactive | inactive
3 | CC1CC(=O)N(CN2CCC(Cc3ccccc3)CC2)C1=O (stereo unspecified) | inactive | Non-Toxic | Non-Toxic | inactive | inactive | inactive
4 | O=C1CCC(=O)N1CN1CCN(Cc2ccccc2)CC1 | inactive | Non-Toxic | Non-Toxic | inactive | inactive | inactive
5 | CN1CCN(CN2C(=O)CCC2=O)CC1 | inactive | Non-Toxic | Non-Toxic | inactive | inactive | inactive
6 | O=C1CCC(=O)N1CN1CCN(CCO)CC1 | inactive | Non-Toxic | Non-Toxic | inactive | inactive | inactive
7 | O=C1CC(C(c2ccccc2)c2ccccc2)C(=O)N1CN1CCC(Cc2ccccc2)CC1 (stereo unspecified) | inactive | Non-Toxic | Non-Toxic | inactive | inactive | inactive
8 | O=C1CCC(=O)N1CN1CCN(C2CCCCC2)CC1 | inactive | Non-Toxic | Non-Toxic | inactive | inactive | inactive
9 | CC(C)C1CC(=O)N(CN2CCN(c3ncccn3)CC2)C1=O (stereo unspecified) | inactive | Non-Toxic | Non-Toxic | inactive | inactive | inactive
10 | CC1CC(=O)N(CN2CCN(C3CCCCC3)CC2)C1=O (stereo unspecified) | inactive | Non-Toxic | Non-Toxic | inactive | inactive | inactive
11 | O=C1CCC(=O)N1CN1CCN(c2ncccn2)CC1 | inactive | Non-Toxic | Non-Toxic | inactive | inactive | inactive
12 | CC(C)C1CC(=O)N(CN2CCN(Cc3ccccc3)CC2)C1=O (stereo unspecified) | inactive | Non-Toxic | Non-Toxic | inactive | inactive | inactive
13 | CC1CC(=O)N(CN2CCN(CCO)CC2)C1=O (stereo unspecified) | inactive | Non-Toxic | Non-Toxic | inactive | inactive | inactive
14 | CC(C)C1CC(=O)N(CN2CCC(Cc3ccccc3)CC2)C1=O (stereo unspecified) | inactive | Non-Toxic | Non-Toxic | inactive | inactive | inactive
15 | O=C1CCC(=O)N1CN1CCC(Cc2ccccc2)CC1 | inactive | Non-Toxic | Non-Toxic | inactive | inactive | inactive
16 | CC1CC(=O)N(CN2CCOCC2)C1=O (stereo unspecified) | inactive | Non-Toxic | Non-Toxic | inactive | inactive | inactive
